Measurements reported in US9556235B2, “F11 receptor (F11R) antagonists as therapeutic agents” (The Research Foundation for The State University of New York, priority 2003, dated 2017).
“Also recorded” adds a separate entry of the source.

Assays:
[1] = tested on: human platelets; test: Potentiation by M.Ab.F11 of ADP-induced platelet aggregation (sub-threshold M.Ab.F11 plus ADP); format: cell-based; conditions: for inhibition of M.Ab.F11 plus ADP-induced platelet aggregation: M.Ab.F11 0.3 μg/ml, ADP 0.5 μM
Procedure: (§1) Whole blood was collected into the anticoagulant ACD (pH 4.6), as detailed (Kornecki et al. (1990) J. Biol. Chem., 265:10042-10048, incorporated herein by reference). Platelets were washed and isolated by differential centrifugation, and resuspended in a Tyrode-albumin (0.35%) solution buffered with 11.9 mM sodium bicarbonate (pH 7.35) in the presence of apyrase, heparin, and PGE1 (Id.). […] Platelet aggregation was measured in a Chronolog Whole Blood Lumi-Aggregometer (Chronolog Corp. Havertown, Pa.). […] The lowest concentration of each agonist which caused platelet aggregation was determined in these experiments for each donor on the day of blood collection.
Synthetic peptides according to published sequences of F11R were prepared.

[2] = tested on: human platelets; test: Potentiation by M.Ab.F11 of collagen-induced platelet aggregation; format: cell-based
Procedure: as §1
However, the addition of sub-threshold amounts of collagen and M.Ab.F11 triggered a full-blown platelet aggregation.

[3] = tested on: platelets; test: Platelet adhesion to immobilized M.Ab.F11 (BCA protein assay); format: cell-based, human; conditions: for inhibition in platelet adhesion assay (immobilized M.Ab.F11): FIG. 3 legend, concentration not given; for inhibition of the adhesion of platelets to immobilized M.Ab.F11: M.Ab.F11 150 ng/well
Procedure: An adhesion assay, based on the determination of cell-derived protein using Bicinchoninic Acid (BCA) protein assay (Tuszynski et al. (1990) Anal. Biochem 184:189-191, incorporated herein by reference), was used for platelet adhesion to immobilized M.Ab.F11. Wells of a 96-well plate (Nunc-Immuno™ Plate, MaxiSorp™ Surface, flat bottomed) were incubated overnight at 4° C. with […] of a 1 mg/ml solution of M.Ab.F11. Wells were aspirated, washed, treated with TBS/1% BSA for 1 h at 37° C., and washed with TBS/0.1 mM MnCl2/0.1 mM CaCl2. Isolated platelet suspensions (100 μl) (3×10^8/ml) were added and plates were incubated at 37° C. for 90 min. Total platelet-associated protein was determined by dissolving the attached platelets directly with 100 μl BCA. Platelets were incubated at 37° C. for 2 h, and absorbance (595 nm) determined (Dynatech Laboratories, Chantilly, Va.).
The five peptides with sequences shown in Table 1 were tested also for their effects on the adhesion of platelets to immobilized M.Ab.F11 (applied at a concentration of 150 ng/well). […] Peptide 1 (SEQ ID NO: 1), added at 50 μM caused about 60% inhibition of the adhesion of platelets to immobilized M.Ab.F11, and with 500 μM of peptide 1 (SEQ ID NO: 1), about 70% inhibition was observed. Peptide 4 (SEQ ID NO: 4), at 50 μM, produced very little (10%) inhibition compared to peptide 1 (SEQ ID NO: 1) at similar concentrations. However, 500 μM of peptide 4 (SEQ ID NO: 4) produced approximately 70% inhibition in the adhesion of platelets to M.Ab.F11, similar to that observed with peptide 1 (SEQ ID NO: 1) at the same concentration.

[4] = tested on: apoE KO mice; test: Plaque formation in animal model of atherosclerosis (apoE KO mice); format: in vivo; conditions: for physical appearance of the animals (secondary consequences of atherosclerosis): 5 month period, Western-type diet, FIG. 7
Procedure: The results of an in-vivo study of the effects of F11R peptide 4D on plaque formation in an animal model of atherosclerosis (apoE knockout/KO mice) are discussed below. The atherosclerosis-prone apoE KO is a strain of mice that has been genetically engineered to develop cardiovascular disease. This genetic abnormality is manifested by the continuous development of atherosclerotic plaques from early age to adulthood, accompanied by deteriorating, sickly appearance.
The study was conducted on atherosclerosis prone apoE deficient (knock-out female mice of 6 weeks of age) of a C57BL/6 background. The mice were obtained from the Jackson Laboratory (Bar Harbor, Me.). Seven animals were injected daily with peptide 4D. In parallel, control groups, consisting of animals injected with water, the vehicle used to deliver peptide 4D, was maintained. All mice were fed a Western-type diet.
At pre-determined intervals of 3, 4 and 5 months of treatment, the aortae were dissected. Following the dissection of the aortae of all mice, morphometric analyses of lesion areas was performed on aortic arch sections stained with Harris hematoxylin-eosin. The total intimal lesion areas were quantified by taking the average of 6 sections spaced 30 μm apart, beginning at the base of the aortic root of each animal. Images were viewed and captured with a microscope (Nikon) equipped with a color video camera (Motic Images Plus 2.0) attached to a computerized imaging system with Image-J.
En face assays (to visualize the entire aorta) were conducted for comparison of the size and number of atherosclerotic plaques in treated and untreated animals using an Oil red O staining procedure, as shown in FIG. 9. […] FIG. 9B illustrates the differences in the number and size of plaques in animals following a 4-month period of injection with peptide 4D, comparing animals “P4, P5” treated with peptide 4D versus controls “H3, H4, H5”.
The proximal aortae of treated an untreated groups were also assessed by hematoxylin-eosin staining of the proximal aorta (root assay) for the size of the lesions/plaques and the necrotic core area within the proximal aorta. FIG. 10A illustrates the plaques and the size of the necrotic core area of animals treated or not treated with peptide 4D for a 3 month period.

[5] = tested on: human platelets; test: M.Ab.F11-induced platelet aggregation; format: cell-based; conditions: sF11R 1 μg/ml; M.Ab.F11 2.45 μg/ml; FIG. 1A
Procedure: as §1
The soluble polypeptide sF11R was tested in the platelet aggregation assay to determine its effect on the rate and extent of platelet aggregation.
The F11R/JAM-A receptor is constitutively expressed on the surface membrane of human platelets. Studies were carried out testing the effects of Fab fragments prepared from M.Ab.F11, i.e., on the M.Ab.F11-induced platelet aggregation that is triggered by M.Ab.F11 binding to F11R. It was determined that these Fab fragments interfered with the ability of the intact M.Ab.F11 antibody to activate platelets through the constitutively-expressed F11R.
As shown below, platelet aggregation was assayed in the presence of either 0.1 μg/ml (FIG. 4a), or 1.0 μg/ml (FIG. 4b). […]

[6] = collagen 0.5 μg/ml (sub-threshold), peptide concentration not given
[7] = peptide approximately 50-500 μM

KSVTREDTGTYTC [peptide 4]
inhibition of M.Ab.F11 plus ADP-induced platelet aggregation ([1]; peptide approximately 50 μM): completely block | inhibition of M.Ab.F11 plus ADP-induced platelet aggregation ([1]; peptide approximately 50 μM, listed as Peptide 4): completely inhibited aggregation | block of potentiation by M.Ab.F11 of collagen-induced platelet aggregation [2, 6]: completely blocked | inhibition in platelet adhesion assay (immobilized M.Ab.F11) [3]: inhibition | inhibition of the adhesion of platelets to immobilized M.Ab.F11 ([3]; peptide 50 μM): 10% | inhibition of the adhesion of platelets to immobilized M.Ab.F11 ([3]; peptide 500 μM): about 70%

SYEDRVTFLPTGITFKSVTRED [peptide 2, F11R amino acids 55-76, control peptide]
inhibition of M.Ab.F11 plus ADP-induced platelet aggregation [1, 7]: no inhibitory effects | inhibition of M.Ab.F11 plus ADP-induced platelet aggregation ([1]; peptide approximately 50-500 μM, listed as SEQ ID NO: 2): do not inhibit aggregation | inhibition of the adhesion of platelets to immobilized M.Ab.F11 ([3]; peptide 500 μM): did not cause significant inhibition

dKSVTdREDTGTYTC-CONH2 [peptide 4D]
size of the atherosclerotic plaques, en face assay (entire aorta, Oil red O) ([4]; 3, 4 and 5 month period of injection, FIG. 9D): decrease in the size of the atherosclerotic plaques | size of the plaque/lesion areas, proximal aorta ([4]; 3, 4 and 5 months of injections): significant decreases | size of the necrosis core area (NE) within the lesion ([4]; 3 month period of injection, FIG. 10C): significant decrease | physical appearance of the animals (secondary consequences of atherosclerosis) ([4]; apoE KO mice, daily injection): prevented the degeneration of the animal's appearance | physical appearance of the animals (secondary consequences of atherosclerosis) ([4]; apoE KO mice, daily injection, listed as F11R peptide 4D): diminishes the secondary consequences | loss of hair, itching/scratching and lesions on the skin ([4]; apoE KO mice, daily injection, FIG. 7C-F): not observed | rate and extent of atherosclerotic plaque formation in major arterial blood vessels ([4]; apoE KO mice, summary of FIGS. 8-10): significantly decreases | size of atherosclerotic plaques in the aortic arch ([4]; three, four and five months of injection, hematoxylin-eosin sections, FIG. 8): beneficial effects | size of the lesion area, proximal aorta (root assay) ([4]; treated for 3 months, *P<0.05, FIG. 10B): significant decrease

WKFDQGDTTRLVEYNNKITASY [peptide 3, F11R amino acids 35-56, control peptide]
inhibition of M.Ab.F11 plus ADP-induced platelet aggregation [1, 7]: no inhibitory effects | inhibition of M.Ab.F11 plus ADP-induced platelet aggregation ([1]; peptide approximately 50-500 μM, listed as SEQ ID NO: 3): do not inhibit aggregation | block of potentiation by M.Ab.F11 of collagen-induced platelet aggregation [2, 6]: did not inhibit platelet aggregation | inhibition of the adhesion of platelets to immobilized M.Ab.F11 ([3]; peptide 500 μM): did not cause significant inhibition

SVTVHSSEPEVRIPENNPVKLSC [peptide 1, N-terminal peptide of F11R, amino acids 1-23]
inhibition of M.Ab.F11 plus ADP-induced platelet aggregation ([1]; peptide approximately 50 μM): completely inhibited | inhibition of M.Ab.F11 plus ADP-induced platelet aggregation ([1]; peptide approximately 50 μM, listed as Peptide 1): completely inhibited platelet aggregation | persistence of inhibition of M.Ab.F11 plus ADP-induced platelet aggregation ([1]; peptide approximately 50 μM, examined after a 12 h period): aggregation did not ensue | block of potentiation by M.Ab.F11 of collagen-induced platelet aggregation [2, 6]: completely blocked | inhibition in platelet adhesion assay (immobilized M.Ab.F11) [3]: inhibition | inhibition of the adhesion of platelets to immobilized M.Ab.F11 ([3]; peptide 50 μM): about 60% | inhibition of the adhesion of platelets to immobilized M.Ab.F11 ([3]; peptide 500 μM): about 70%

EQDGSPPSEYTWFKD [peptide 5, F11R amino acids 128-142, control peptide]
inhibition of M.Ab.F11 plus ADP-induced platelet aggregation [1, 7]: no inhibitory effects | inhibition of M.Ab.F11 plus ADP-induced platelet aggregation ([1]; peptide approximately 50-500 μM, listed as SEQ ID NO: 5): do not inhibit aggregation | block of potentiation by M.Ab.F11 of collagen-induced platelet aggregation [2, 6]: did not inhibit platelet aggregation | inhibition of the adhesion of platelets to immobilized M.Ab.F11 ([3]; peptide 500 μM): did not cause significant inhibition

B1: sF11R: secreted recombinant F11R, extracellular portion (amino acids ser-1 to asn-208), His tag, from COS-7 cells (protein)
chain: SVTVHSSEPEVRIPENNPVKLSCAYSGFSSPRVEWKFDQGDTTRLVCYNNKITASYEDRVTFLPTGITFKSVTREDTGTYTCMVSEEGGNSYGEVKVKLIVLVPPSKPTVNIPSSATIGNRAVLTCSEQDGSPPSEYTWFKDGIVMPTNPKSTRAFSNSSYVLNPTTGELVFDPLSASDTGEYSCEARNGYGTPMTSNAVRMEAVERN
modifications: left off: small tags and cut ends
notes: secreted recombinant F11R, extracellular portion (amino acids ser-1 to asn-208), His tag, from COS-7 cells
inhibition of M.Ab.F11-induced platelet aggregation [5]: effectively inhibited; also recorded: Inhibition | block of potentiation by M.Ab.F11 of ADP-induced platelet aggregation ([1]; sF11R 1 μg/ml): completely blocked | block of potentiation by M.Ab.F11 of collagen-induced platelet aggregation ([2]; sF11R 1 μg/ml): completely blocked
